{
  "source": "PubChem BioAssay AID743410",
  "about": "(Sanford-Burnham Center for Chemical Genomics, 2014)",
  "test_system": "RS11846 B cell chemotaxis to 7a,25-OHC, calcein fluorescence",
  "test": "EBI2 antagonists in B cell chemotaxis, dose response, 7a,25-OHC, calcein fluorescence (AID 743410)",
  "note": "pIC50: −log10 of the molar value.",
  "data": [
    {"molecule": "O=C(/C=C/c1ccc(Br)cc1)N1CCN(Cc2ccc(Cl)cc2)CC1", "values": [
      {"measurement": "pIC50", "result": 8.20}
    ]}
  ]
}
